From ChEMBL document CHEMBL3132759, “Design and synthesis of a novel series of cyclohexyloxy-pyridyl derivatives as inhibitors of diacylglycerol acyl transferase 1” (Medchemcomm, 2013) come the findings set out here.

The target in data set [1] is Cytochrome P450 2D6 (Homo sapiens, UniProt P10635). As to the kind of experiment: Inhibition of CYP2D6 (unknown origin). In kind it is ADME.
Data set [2] deals with Voltage-gated inwardly rectifying potassium channel KCNH2 (Homo sapiens, UniProt Q12809). Put plainly: Inhibition of human ERG.
Data set [3] addresses T1, Diacylglycerol O-acyltransferase 1 (Homo sapiens, UniProt O75907).
T1 sequence (O75907 whole entry): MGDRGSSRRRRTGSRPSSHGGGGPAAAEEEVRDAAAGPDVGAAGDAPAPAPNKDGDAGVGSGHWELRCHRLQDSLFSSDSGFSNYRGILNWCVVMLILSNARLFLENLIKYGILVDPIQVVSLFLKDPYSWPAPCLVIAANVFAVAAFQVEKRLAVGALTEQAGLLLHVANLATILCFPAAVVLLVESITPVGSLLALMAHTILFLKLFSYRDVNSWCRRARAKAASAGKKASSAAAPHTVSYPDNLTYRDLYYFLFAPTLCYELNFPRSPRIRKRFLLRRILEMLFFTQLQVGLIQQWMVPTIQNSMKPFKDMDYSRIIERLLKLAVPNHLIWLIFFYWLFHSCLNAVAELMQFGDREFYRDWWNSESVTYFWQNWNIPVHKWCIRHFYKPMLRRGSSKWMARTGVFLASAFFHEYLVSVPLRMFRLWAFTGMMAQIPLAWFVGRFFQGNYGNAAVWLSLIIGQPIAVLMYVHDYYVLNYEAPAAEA
As to the kind of experiment: Inhibition of human DGAT1.

Data set [4] in a line: Apparent permeability in MDCK cells assessed as permeability from apical to basolateral side. In kind it is ADME, cell-based, Canis lupus familiaris. Particulars: dog.
For data set [5], the species on record is Rattus norvegicus. Put plainly: Reduction in circulating plasma triglyceride levels in rat by oral lipid tolerance test. In kind it is functional, organism-based.
The subject of data set [6] is Hepatocyte. Put plainly: Intrinsic clearance in human hepatocytes. In kind it is ADME, cell-based.
Data set [7] in a line: Clearance in rat. In kind it is ADME, organism-based. As to conditions: in vivo.
Data set [8] addresses Cytochrome P450 2C19 (Homo sapiens, UniProt P33261). Put plainly: Inhibition of CYP2C19 (unknown origin). In kind it is ADME.
Data set [9] addresses T1, Diacylglycerol O-acyltransferase 1. Put plainly: Inhibition of DGAT1 in human HuTu80 cells assessed as reduction in triglyceride levels. In kind it is cell-based.
Data set [10] has as its target T2, Sterol O-acyltransferase 1 (Homo sapiens, UniProt P35610).
T2 sequence (P35610 whole entry): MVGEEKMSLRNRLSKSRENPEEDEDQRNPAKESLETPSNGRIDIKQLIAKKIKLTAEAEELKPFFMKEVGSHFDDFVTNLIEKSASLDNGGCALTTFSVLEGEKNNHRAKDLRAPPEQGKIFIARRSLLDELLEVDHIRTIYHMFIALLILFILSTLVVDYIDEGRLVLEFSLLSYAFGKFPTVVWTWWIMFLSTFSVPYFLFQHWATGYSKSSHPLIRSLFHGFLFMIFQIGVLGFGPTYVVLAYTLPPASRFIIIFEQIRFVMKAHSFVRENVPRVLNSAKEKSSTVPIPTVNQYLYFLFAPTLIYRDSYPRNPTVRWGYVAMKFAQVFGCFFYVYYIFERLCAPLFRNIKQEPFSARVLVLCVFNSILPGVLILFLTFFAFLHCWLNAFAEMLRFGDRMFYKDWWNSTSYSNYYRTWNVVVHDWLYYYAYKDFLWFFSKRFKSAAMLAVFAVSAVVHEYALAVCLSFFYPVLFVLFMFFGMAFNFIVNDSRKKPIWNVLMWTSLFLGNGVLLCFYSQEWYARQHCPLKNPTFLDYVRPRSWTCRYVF
Put plainly: Inhibition of human ACAT1.

The target in data set [11] is T3, Cytochrome P450 1A2 (Homo sapiens, UniProt P05177).
T3 sequence (P05177 whole entry): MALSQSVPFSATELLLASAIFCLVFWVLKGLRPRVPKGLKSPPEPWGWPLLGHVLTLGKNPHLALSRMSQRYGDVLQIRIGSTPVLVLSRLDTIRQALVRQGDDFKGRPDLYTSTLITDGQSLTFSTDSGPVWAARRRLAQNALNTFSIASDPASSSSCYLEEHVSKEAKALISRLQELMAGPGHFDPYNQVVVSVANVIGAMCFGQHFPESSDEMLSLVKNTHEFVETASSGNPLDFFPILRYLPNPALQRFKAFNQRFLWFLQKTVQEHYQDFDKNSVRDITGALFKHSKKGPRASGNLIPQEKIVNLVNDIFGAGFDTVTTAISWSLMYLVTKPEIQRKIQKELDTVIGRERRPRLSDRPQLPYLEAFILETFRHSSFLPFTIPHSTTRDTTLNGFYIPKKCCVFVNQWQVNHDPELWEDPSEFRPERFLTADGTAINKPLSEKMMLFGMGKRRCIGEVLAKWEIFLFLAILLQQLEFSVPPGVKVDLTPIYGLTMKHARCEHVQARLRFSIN
Put plainly: Inhibition of CYP1A2 (unknown origin). In kind it is ADME.

Data set [12] in a line: Oral bioavailability in rat. Particulars: in vivo. In kind it is ADME, organism-based.
The nature of data set [13]: Lipophilicity, logD of the compound. In kind it is physicochemical. Particulars: octanol/water.
In data set [14] the target is Cytochrome P450 2C9 (Homo sapiens, UniProt P11712). Put plainly: Inhibition of CYP2C9 (unknown origin). In kind it is ADME.
For data set [15], the species on record is Rattus norvegicus. Put plainly: Unbound clearance in rat. Particulars: in vivo. In kind it is ADME, organism-based.
For data set [16], the target named is T4, Diacylglycerol O-acyltransferase 1 (Rattus norvegicus, UniProt Q9ERM3).
T4 sequence (Q9ERM3 whole entry): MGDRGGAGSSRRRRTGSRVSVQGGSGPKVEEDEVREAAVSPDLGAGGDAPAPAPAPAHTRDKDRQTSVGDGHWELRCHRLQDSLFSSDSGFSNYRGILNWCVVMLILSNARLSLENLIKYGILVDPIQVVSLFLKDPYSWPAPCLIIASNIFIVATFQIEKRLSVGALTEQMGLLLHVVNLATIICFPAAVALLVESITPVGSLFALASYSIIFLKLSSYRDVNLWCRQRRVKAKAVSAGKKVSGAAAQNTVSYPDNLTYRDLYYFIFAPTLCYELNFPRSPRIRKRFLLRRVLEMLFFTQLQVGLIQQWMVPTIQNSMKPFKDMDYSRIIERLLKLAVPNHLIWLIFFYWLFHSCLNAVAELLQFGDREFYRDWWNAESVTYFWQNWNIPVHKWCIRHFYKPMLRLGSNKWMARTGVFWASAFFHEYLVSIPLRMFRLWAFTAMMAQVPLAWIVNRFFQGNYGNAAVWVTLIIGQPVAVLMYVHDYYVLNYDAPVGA
As to the kind of experiment: Inhibition of DGAT1 in rat microsomes.

Data set [17] addresses Cytochrome P450 3A4 (Homo sapiens, UniProt P08684). As to the kind of experiment: Inhibition of CYP3A4 (unknown origin). In kind it is ADME.
Data set [18] in a line: Oral bioavailability in dog. In kind it is ADME, organism-based, Canis lupus familiaris. Particulars: in vivo.
The species entered for data set [19] is Canis familiaris. As to the kind of experiment: Unbound clearance in dog. In kind it is ADME, organism-based, Canis lupus familiaris. As to conditions: in vivo.
Data set [20] can be described thus: Clearance in dog. In kind it is ADME, organism-based, Canis lupus familiaris. As to conditions: in vivo.
Data set [21] has as its target T5, Diacylglycerol O-acyltransferase 2 (Homo sapiens, UniProt Q96PD7).
T5 sequence (Q96PD7 whole entry): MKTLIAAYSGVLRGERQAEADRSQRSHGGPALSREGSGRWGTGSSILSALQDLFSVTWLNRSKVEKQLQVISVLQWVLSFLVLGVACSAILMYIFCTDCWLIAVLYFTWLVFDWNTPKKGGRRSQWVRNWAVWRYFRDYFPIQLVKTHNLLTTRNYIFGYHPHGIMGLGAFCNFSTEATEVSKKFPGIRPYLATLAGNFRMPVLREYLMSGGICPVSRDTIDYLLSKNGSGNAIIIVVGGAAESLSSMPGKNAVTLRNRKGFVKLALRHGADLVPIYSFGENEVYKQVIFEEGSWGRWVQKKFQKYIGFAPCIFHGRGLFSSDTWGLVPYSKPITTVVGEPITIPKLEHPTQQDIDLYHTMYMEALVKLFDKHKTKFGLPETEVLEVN
As to the kind of experiment: Inhibition of human DGAT2.

The nature of data set [22]: Thermodynamic solubility of the compound after 24 hrs at pH 7.4. In kind it is physicochemical. As to conditions: buffer, read-out: Therm_solubility.
For data set [23], the species on record is Rattus norvegicus. Put plainly: Reduction in circulating plasma triglyceride levels in rat by oral lipid tolerance test by PK/PD analysis. In kind it is functional, organism-based.
Data set [24] can be described thus: Apparent permeability in human Caco2 cells assessed as permeability from apical to basolateral side. In kind it is ADME, cell-based. As to conditions: Caco-2. (Caco-2 cells form a polarised layer with tight junctions and transporters.)

Values after ≈ are worked out from the molar mass of the structure shown.

As a reminder, the IC50 is the concentration at which inhibition is half-maximal. The Papp A→B is how fast a substance crosses the layer from the apical side. What is called clearance is a measure of how efficiently the substance is removed, as volume per time. The bioavailability is dose-corrected exposure relative to a reference, in per cent. As usually defined, the logD is the decadic logarithm of the distribution of all forms, ionised or not, between an organic phase and buffer at a given pH. The low end stands for lower lipophilicity, the high end for higher lipophilicity.

Cytochrome P450 2C19, sequence (P33261 whole entry): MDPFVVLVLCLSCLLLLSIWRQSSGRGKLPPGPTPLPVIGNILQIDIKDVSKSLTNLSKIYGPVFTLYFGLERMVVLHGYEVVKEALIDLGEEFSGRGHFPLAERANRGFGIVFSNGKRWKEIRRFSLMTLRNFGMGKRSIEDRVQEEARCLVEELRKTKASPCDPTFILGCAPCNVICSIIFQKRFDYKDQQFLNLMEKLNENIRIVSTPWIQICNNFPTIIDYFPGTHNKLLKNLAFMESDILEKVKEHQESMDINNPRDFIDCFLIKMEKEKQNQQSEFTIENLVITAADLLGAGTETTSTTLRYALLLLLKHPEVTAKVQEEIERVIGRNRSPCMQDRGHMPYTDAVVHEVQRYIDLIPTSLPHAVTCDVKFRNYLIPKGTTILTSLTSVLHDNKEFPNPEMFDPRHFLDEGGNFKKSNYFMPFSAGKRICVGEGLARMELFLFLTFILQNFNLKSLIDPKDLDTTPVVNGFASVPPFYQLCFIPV
Cytochrome P450 2C9, sequence (P11712 whole entry): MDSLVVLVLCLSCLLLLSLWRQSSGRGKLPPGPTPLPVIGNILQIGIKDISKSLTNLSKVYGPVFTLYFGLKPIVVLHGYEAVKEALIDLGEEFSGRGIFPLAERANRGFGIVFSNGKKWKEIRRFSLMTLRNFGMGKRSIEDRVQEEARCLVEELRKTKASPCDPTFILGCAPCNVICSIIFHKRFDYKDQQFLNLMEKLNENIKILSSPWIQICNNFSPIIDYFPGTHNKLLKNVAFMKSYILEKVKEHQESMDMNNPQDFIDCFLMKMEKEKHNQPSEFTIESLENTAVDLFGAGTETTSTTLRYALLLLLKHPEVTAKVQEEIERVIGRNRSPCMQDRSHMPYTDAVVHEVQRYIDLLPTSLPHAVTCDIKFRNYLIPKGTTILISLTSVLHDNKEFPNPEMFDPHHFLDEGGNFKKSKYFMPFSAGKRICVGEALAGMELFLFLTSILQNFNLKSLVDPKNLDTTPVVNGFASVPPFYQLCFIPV
Cytochrome P450 3A4, sequence (P08684 whole entry): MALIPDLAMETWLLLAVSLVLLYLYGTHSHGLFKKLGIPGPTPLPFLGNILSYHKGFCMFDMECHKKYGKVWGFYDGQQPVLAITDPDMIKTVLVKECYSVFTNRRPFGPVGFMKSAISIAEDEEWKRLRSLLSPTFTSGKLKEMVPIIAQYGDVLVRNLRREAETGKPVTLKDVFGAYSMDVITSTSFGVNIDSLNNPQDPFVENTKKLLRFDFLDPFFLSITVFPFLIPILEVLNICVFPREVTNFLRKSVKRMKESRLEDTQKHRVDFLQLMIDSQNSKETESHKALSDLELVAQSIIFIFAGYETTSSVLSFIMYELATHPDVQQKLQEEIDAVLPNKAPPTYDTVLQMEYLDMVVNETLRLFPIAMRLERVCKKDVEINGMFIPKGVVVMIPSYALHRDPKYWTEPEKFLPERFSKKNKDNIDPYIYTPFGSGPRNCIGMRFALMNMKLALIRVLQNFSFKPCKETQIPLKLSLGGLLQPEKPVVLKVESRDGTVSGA
Cytochrome P450 2D6, sequence (P10635 whole entry): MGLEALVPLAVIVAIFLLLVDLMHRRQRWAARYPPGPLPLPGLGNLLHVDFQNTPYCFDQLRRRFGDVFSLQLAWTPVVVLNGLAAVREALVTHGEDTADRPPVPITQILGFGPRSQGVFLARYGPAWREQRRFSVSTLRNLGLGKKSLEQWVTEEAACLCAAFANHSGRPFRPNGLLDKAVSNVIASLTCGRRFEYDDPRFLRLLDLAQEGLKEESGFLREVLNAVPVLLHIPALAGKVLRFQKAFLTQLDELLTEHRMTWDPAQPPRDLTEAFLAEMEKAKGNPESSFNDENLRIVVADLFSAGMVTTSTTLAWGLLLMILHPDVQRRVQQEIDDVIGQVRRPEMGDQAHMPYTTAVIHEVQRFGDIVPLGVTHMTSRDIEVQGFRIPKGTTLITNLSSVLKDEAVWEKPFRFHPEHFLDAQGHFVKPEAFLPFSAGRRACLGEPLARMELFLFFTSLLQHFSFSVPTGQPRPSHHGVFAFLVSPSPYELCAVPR
Voltage-gated inwardly rectifying potassium channel KCNH2, sequence (Q12809 whole entry): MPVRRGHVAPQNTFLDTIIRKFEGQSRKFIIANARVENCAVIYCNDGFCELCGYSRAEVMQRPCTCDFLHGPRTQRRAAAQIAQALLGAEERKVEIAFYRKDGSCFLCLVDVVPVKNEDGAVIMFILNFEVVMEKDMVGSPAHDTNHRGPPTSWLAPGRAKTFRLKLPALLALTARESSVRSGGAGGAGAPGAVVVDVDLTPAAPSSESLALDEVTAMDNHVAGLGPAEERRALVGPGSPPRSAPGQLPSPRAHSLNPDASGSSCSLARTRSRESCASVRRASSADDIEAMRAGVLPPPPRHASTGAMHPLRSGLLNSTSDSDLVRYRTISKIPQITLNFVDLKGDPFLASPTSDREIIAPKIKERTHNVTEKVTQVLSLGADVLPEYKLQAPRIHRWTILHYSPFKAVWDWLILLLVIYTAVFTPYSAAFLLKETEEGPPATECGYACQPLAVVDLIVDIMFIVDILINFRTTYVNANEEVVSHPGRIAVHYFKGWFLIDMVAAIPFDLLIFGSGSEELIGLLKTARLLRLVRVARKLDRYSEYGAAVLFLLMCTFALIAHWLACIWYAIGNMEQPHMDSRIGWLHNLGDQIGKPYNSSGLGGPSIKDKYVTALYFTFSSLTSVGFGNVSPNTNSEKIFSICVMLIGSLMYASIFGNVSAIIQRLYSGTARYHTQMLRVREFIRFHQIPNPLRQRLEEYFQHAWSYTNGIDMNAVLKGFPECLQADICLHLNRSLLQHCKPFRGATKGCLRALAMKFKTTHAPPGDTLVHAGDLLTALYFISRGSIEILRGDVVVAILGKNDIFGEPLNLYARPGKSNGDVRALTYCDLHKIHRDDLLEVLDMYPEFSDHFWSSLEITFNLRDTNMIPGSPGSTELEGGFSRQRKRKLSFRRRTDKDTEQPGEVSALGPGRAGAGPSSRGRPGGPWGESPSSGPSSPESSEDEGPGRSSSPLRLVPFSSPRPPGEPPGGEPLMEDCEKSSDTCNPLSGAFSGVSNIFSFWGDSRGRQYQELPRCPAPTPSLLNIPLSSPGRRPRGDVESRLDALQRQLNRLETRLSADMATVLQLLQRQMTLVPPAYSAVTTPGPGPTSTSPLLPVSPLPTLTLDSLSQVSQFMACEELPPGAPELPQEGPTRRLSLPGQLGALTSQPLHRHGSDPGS

As to `O=C(O)C[C@H]1CC[C@@H](Oc2ccc(NC(=O)c3nnc(Nc4ccc(F)c(F)c4)o3)cn2)CC1`, the IC50 was over 10000 nM in [1]; over 30000 nM in data set [2]; 7 nM in data set [3]; over 10000 nM in [8]; 4 nM in [9]; 1500 nM in [10]. For the same compound, the IC50 in data set [11] was over 10000 nM; in [14], over 10000 nM; in data set [16], 0.9 nM; in data set [17], over 10000 nM; in data set [21] it was 28000 nM; in data set [23], 0.2 nM. Further, in data set [4], the Papp A→B stood at 5.1 ×10⁻⁶ cm/s. Moreover, the inhibition result in data set [5] was “Dose-dependent effect”. In addition, in [6], the “Intrinsic clearance (CLint)” value is under 2 µL/min/mg. Besides, the clearance in [7] is 0.7 mL/min/kg; in data set [20], 2.3 mL/min/kg. Moreover, the bioavailability was 82% in [12] and 35% in [18]. In addition, in [13], the logD came to 2.2. The results for the CL free in [15] and in [19] were 230 mL/min/kg and 100 mL/min/kg, respectively. Further, the solubility thermodynamic at 24 h in data set [22] stood at 4 µM (≈ 1.89 µg/mL).

In the case of `O=C(Nc1ccc(O[C@H]2CC[C@@H](C(=O)O)CC2)cc1F)c1nnc(Nc2cc(F)c(F)cc2F)o1`, the IC50 amounted to 3 nM in data set [3] and 310 nM in [10]. Besides, the “Intrinsic clearance (CLint)” value in data set [6] was under 2 µL/min/mg. The clearance is 0.4 mL/min/kg in data set [7] and 6.5 mL/min/kg in [20]. Besides, the bioavailability in data set [12] was found to be 85%; in data set [18], 76%. The compound further came in with a logD in [13] of 1.9. Also, the CL free in [15] amounted to 200 mL/min/kg; in [19], 1700 mL/min/kg. The Papp A→B in data set [24] came out at 33 ×10⁻⁶ cm/s. Moreover, the solubility thermodynamic at 24 h in data set [22] was 69 µM (≈ 34.1 µg/mL).
